In paper PMC5064445 (ACS infectious diseases, 2015):

Key:
[1] = tested on: HeLa cells; experiment: Cytotoxicity assay; assay type: cell-based, human; details: up to 500 μM; 24 h incubation
[2] = tested on: HEK 293 cells; experiment: Cytotoxicity assay; assay type: cell-based, human; details: up to 500 μM; 24 h incubation
[3] = biological target: NDM-1 (Klebsiella pneumoniae, UniProt C7C422); experiment: Inhibition of NDM-1-catalyzed imipenem hydrolysis; assay type: biochemical; details: relative to L-CS319
Chain of NDM-1 (C7C422 39-270 limits assumed): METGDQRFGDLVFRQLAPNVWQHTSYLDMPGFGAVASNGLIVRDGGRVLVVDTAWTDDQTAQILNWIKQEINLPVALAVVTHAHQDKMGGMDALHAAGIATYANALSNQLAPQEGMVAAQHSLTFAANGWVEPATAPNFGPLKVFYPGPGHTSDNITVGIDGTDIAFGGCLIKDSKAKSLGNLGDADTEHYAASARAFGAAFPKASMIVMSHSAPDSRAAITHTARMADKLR

SMILES	toxic effects against HeLa cells [1]	toxic effects against Hek 293 cells [2]	times less active than L-CS319 (in vitro NDM-1 inhibition) [3] [times]
O=C(O)[C@@H]1CS[C@H]2CS[C@H](CS)N21 [L-CS319, (2R,5S,8R)-8-Carboxylate-2-mercaptomethyl-1-aza-3,6-dithiobicyclo[3.3.0]octane]	did not show toxic effects	did not show toxic effects	–
CC1(C)S[C@@H]2CS[C@@H](CS)N2[C@H]1C(=O)O [D-VC26, (2S,5R,8S)-2-Mercaptomethyl-7-dimethyl-8-carboxylate-1-aza-3,6-dithiobicyclo[3.3.0]octane]	–	–	~2
